Tests used:
[1] = Concentration profile of Pt in mice peripheral blood; type: in vivo, nude mice; details: for Pt concentration in blood: Pt 2.5 mg/kg
Description: The whole blood samples were dissolved in 65% (v/v) nitric acid at 75° C. for 2 h, and Pt concentration was measured by ICP-MS.

H292 cells [2] = assay: SRB cytotoxicity assay; type: cell-based, human; details: 96 h
Description: H292 and H520 cells maintained in medium with 2% FBS were seeded in 96-well plates at a density of 5000 cells/well overnight prior to drug treatment. […] Cells were fixed for 1 h with 10% cold trichloroacetic acid. Plates were washed five times in water, air-dried, and then stained with 0.4% SRB for 10 min. […] Plates were read in a microplate reader by measuring absorbance at 492 nm. The percent survival was then calculated based upon the absorbance values relative to untreated samples. The experiment was repeated three times.

H292 cells [3] = assay: Pt-DNA adduct formation in vitro (ICP-MS of purified DNA); type: cell-based, human; details: 37° C., 24 h
Description: (§1) EGFR-negative H520 cells were used as negative control. […] The cell pellet was digested in 65% (v/v) nitric acid at 75° C. for 2 h. The Pt content was analyzed by ICP-MS. Cellular Pt levels were expressed in ng Pt/10^6 cells. To further check the targeting specificity of EHDDP nanoparticles in vitro, EGFR was knocked down by EGFR small interfering RNAs (siRNA). H292 cells were transfected with EGFR siRNA (sc-29301 from Santa Cruz Bio) (100 pmol) or scrambled siRNA (sc-37007 from Santa Cruz Bio) (100 pmol) as a nonspecific control according to the manufacturer's protocols. Briefly, in a 6-well tissue culture plate, 2×10^5 cells per well were seeded in 2 mL of antibiotic-free RPMI 1640 medium supplemented with 10% FBS and, on the following day, transfected with siRNAs at the final concentration of 100 pmol. […] Mouse anti-β-actin antibody (Trevigen, Gaithersburg, Md.) was used as a sample loading control. Immunostained protein bands were detected with an enhanced chemiluminescence kit (Thermo Scientific, Rockfield, Ill.). […] The data are shown as mean±SD (n=3). DDP-DNA adduct formation was measured using 1×10^7 cells per condition. […] In addition, the expression level of the phosphorylation of H2A.X was detected by Western Blot as described above using the Phospho-Histone H2A.X (Ser139) (20E3) rabbit mAb (Cell Signaling Technology, Inc.).

[4] = Biodistribution of Pt in organs and tumor of H292 tumor-bearing mice; type: in vivo, nude mice
Description: (§2) Blood, organs (liver, spleen, kidney, and lung), and tumor tissue were harvested, half of the organs were dissolved in 65% (v/v) nitric acid at 75° C. for 2 h, and Pt concentrations were measured by ICP-MS. The blood and other half of the organs were used to extract DNA, and the Pt concentration in DNA was quantified as described above.

[5] = tested on: H292 cells (EGFR-positive NSCLC); assay: Intracellular platinum accumulation in H292 cells (ICP-MS); type: cell-based, human; details: 0.4 μg/mL, 24 h
Description: as §1

[6] = tested on: H520 cells (EGFR-negative NSCLC); assay: Intracellular platinum accumulation in H520 cells (ICP-MS); type: cell-based, human; details: 24 h
Description: as §1

[7] = Pt-DNA adducts in kidney and tumor in vivo; design: species or system nude mice; details: single iv dose Pt 2.5 mg/kg
Description: as §2

N.N.[Cl][Pt][Cl] [DDP, cis-diamminedichloroplatinum(II)]
Pt concentration in blood ([1]; 30 min after iv injection): 1.17±0.12 ng/mg blood | Pt concentration in blood ([1]; 8 h after iv injection): 0.36±0.09 ng/mg blood | time of elimination by the renal system ([1]; discussion statement): < 5 min | IC50 (Pt concentration) (H292 cells [2]): 2.12 ± 0.20 µg/mL | Pt level associated with cellular DNA (Pt-DNA adducts) (H292 cells [3]): 19.68±4.35 pg Pt/μg DNA | tumor Pt level ([4]; 10 min after iv injection): 3.58±0.91 ng/mg dry tissue | Pt concentration in kidney ([4]; 10 min after systemic administration): 35.25±5.70 ng/mg dry tissue | Pt concentration in kidney ([4]; 4 h): 11.9±0.79 ng/mg dry tissue | accumulation of Pt in the liver ([4]; 4 h, single iv dose Pt 2.5 mg/kg): 7.71±1.61 ng/mg dry tissue | Pt concentration in kidney ([4]; 24 h): 6.39±0.67 ng/mg dry tissue | tumor Pt level ([4]; 24 h after iv injection): 1.48±0.52 ng/mg dry tissue | decrease of Pt concentration in the liver ([4]; 24 h compared with 4 h): 20% | Pt concentrations in the liver, spleen and kidney, comparison between treatments ([4]; 28 days after treatment): no differences | decrease of Pt accumulation in the liver ([4]; from 10 min to 4 h): 42.5% | decrease of Pt accumulation in the spleen ([4]; from 10 min to 4 h): 82.86% | decrease in Pt accumulation in the kidney ([4]; within 4 h): 65.1% | intracellular Pt level [5]: 2.49±0.39 ng Pt/10^6 cells | intracellular Pt accumulation [6]: 3.38±0.42 ng Pt/10^6 cells | Pt concentration in DNA purified from kidney ([7]; 4 h): 71.78±9.02 pg/μg DNA | Pt-DNA adducts in NSCLC xenograft tumors ([7]; 4 h): 92.21±8.96 pg/μg DNA | Pt concentration in DNA purified from kidney ([7]; 24 h): 25.72±2.78 pg/μg DNA | Pt-DNA adducts in NSCLC xenograft tumors ([7]; 24 h): 94.68±15.01 pg/μg DNA
